This is an account of results in article PMC11234063, “Eugenol and lidocaine inhibit voltage-gated Na^+ channels from dorsal root ganglion neurons with different mechanisms” (Frontiers in Pharmacology, 2024).

This assay has as its system total INa (VGSCs naturally expressed on dorsal root ganglion sensory neurons). The experiment in a line: Dose–response inhibition of total INa peak, whole-cell patch clamp. In kind it is cell-based, rat. The note with it: total INa.

For the compound `C/C=C\c1ccc(O)c(OC)c1` [IEUG], the “Dose response curves' data, Average (fractional current)” value by setting is: (drug at 3 mM) 0.40; (drug at 10 mM) 0.02.
